Measured values: patent US20030082135A1, “Pathway of RANTES-mediated chemokine synthesis in astrocytes and methods of use therefor” (priority 2001, published 2003)

Legend:
Raf-1 = Raf-1 kinase activity in lysates of treated astrocytes (phosphorylation of MEK); format: cell-based, mouse; conditions: 100 ng/ml RANTES
Procedure: FIG. 12 is a set of bar graphs and a photograph of a Western blot showing that RANTES activated Raf-1 kinase activity in astrocytes. Panel A. Astrocytes were stimulated with 100 ng/ml RANTES for the indicated times and cell lysates were prepared for analysis of Raf-1 activity. Values are presented as relative Raf-1 kinase activity (percent) and represent the mean±S.E.M. of triplicate experiments. Panel B. Astrocytes were stimulated with 100 ng/ml RANTES for the indicated times and cell lysates were prepared for analysis by Western blotting. Blots were stained with anti phospho-Raf (Ser 259) Ab or control anti-Raf Ab. Panel C. […] Astrocytes were pretreated with the indicated doses of Raf-1 inhibitor for 1 h and then stimulated with 100 ng/ml RANTES for 3 h. Total RNA was prepared and assayed by RPA for expression of message for the indicated proinflammatory mediators and the housekeeping genes L32 and GAPDH. Representative data from one of three similar experiments are presented. […]
It is herein shown that RANTES induced Raf-1 kinase activity in 1 to 5 min; Raf-1 kinase activity peaked after 5-10 min (FIG. 12A). […] Increased Raf-1 enzyme activity was accompanied by dephosphorylation of Ser 259, an inhibitory phosphate site detected by a specific anti-Raf (Ser 259) antibody (FIG. 12B).

[1] = test system: ICAM-1 and CX3CR1 on astrocytes; assay: Flow cytometric analysis of astrocyte receptor proteins; format: cell-based, mouse
Procedure: Flow cytometric analyses. PBS with 0.1% sodium azide was used for all washes and antibody (Ab) dilutions. Cells were pre-incubated 15 min with 0.5 μg Fc Block (BD-PharMingen) then 40 min at 4° C. with 1 μg of the appropriate Ab or matched isotype control immunoglobulin. Fluorescence-labelled cells were analyzed on a Coulter Profile II flow cytometer (Coulter, Hialeah, Fla.).
Another marker of activated astrocytes in MS and EAE lesions is the increased expression of the adhesion receptor, ICAM-1 (Lee, et al., 1999. J Immunol 165:4658-4666). Control astrocyte cultures were stained with anti-ICAM-1, and RANTES treatment further increased the levels of ICAM-1 protein expression about three-fold (mean intensity 50.2 vs. control of 16.3).
The cell surface receptor CX3CR1 was also selected for analysis since astrocyte expression of this receptor may facilitate interactions with endothelial cells and neurons that carry the membrane-tethered ligand for this receptor (Bacon, et al, 2000. J Neuroimmunol 104:92-97). Anti-CX3CR1 stained about 50% of the control astrocyte population. […] The modulation of receptor proteins peaked at 24 h; similar patterns were noted after a 48 h incubation with RANTES but the intensity levels were intermediate between the 0 and 24 h values.

mouse thymocytes = assay: RPA for chemokine/cytokine transcripts in thymocytes; format: cell-based; conditions: 100 ng/ml, 6 h
Procedure: To evaluate the cellular specificity of chemokine induction by RANTES-related chemokines, mouse thymocytes were treated with 2.5 μg/ml ConA, 100 ng/ml RANTES, or TCA4. After 6 h the cells were harvested for RNA extraction. […] Thus, the ability of RANTES-related chemokines to up-regulate chemokine/cytokine synthesis is not a generalized phenomenon in all cell types, but is specific for CNS cells such as astrocytes.

astrocytes = assay: ELISA of KC, TNF-α and MCP-1 protein in astrocyte culture supernatants; format: cell-based, mouse; conditions: 48 h, 1.5 to 100 ng/ml tested
[2] = test system: phosphorylated RSK in astrocytes; assay: Immunofluorescence of phospho-p90RSK translocation; format: cell-based, mouse; conditions: 100 ng/ml RANTES, 5 or 20 min
Procedure: Immunofluorescence. Astrocytes were grown on glass coverslips for a day; the cells were then serum-starved for three hours. Astrocytes were treated with RANTES for 5 or 20 minutes. Following treatment, cells were fixed in −20° C. methanol, permeabilized in ice-cold 0.2% Triton X-100 in PBS and incubated with phospho-p90RSK (Thr360/Ser364) antibody overnight at 4° C., followed by incubation with Alexa Fluor 555 goat anti-rabbit IgG (Molecular Probes, Eugene, Oreg.). Nuclei were stained with Hoechst 33258 (1:2000) for 5 min; coverslips were mounted on slides using the ProLong Antifade Kit (Molecular Probes, Eugene, Oreg.). Slides were stored at room temperature in the dark until observation.
The ability of RANTES to induce nuclear translocation of RSK was examined.

murine KC promoter = assay: KC promoter luciferase reporter in transfected astrocytes; format: cell-based, mouse; conditions: 100 ng/ml RANTES, 24 h
Source text: Plasmids, transient transfection, and luciferase activity assay. The KC reporter plasmid was constructed by using a luciferase reporter gene pGL-3 basic vector (Promega, Madison, Wis.) driven by mouse KC promoter (−2878/+43). Wild-type p90RSK expression (WT pKH3) and dominant negative p90RSK expression (ΔΔ RSK pKH3) plasmids were obtained from Dr. John Blenis, Harvard Medical School. Astrocytes were transiently transfected with Lipofectamine 2000 reagent (Life Technologies, Gaithersburg, Md.) according to the manufacturer's protocol. After 24 h, the cells were stimulated with RANTES in absence or presence of the indicated inhibitor, and luciferase activity was determined after an additional 24 h, by the procedure according to the manufacturer (Promega, Madison, Wis.). Relative luciferase activity was normalized for cell lysate protein concentration as determined by BCA protein assay kit (Pierce, Rockford, Ill.). The Relative Fold Induction is the relative intensity of the experimental sample divided by the relative intensity of the medium control.
To establish whether RANTES up-regulation of chemokine production is mediated by activation of promoter elements, primary astrocyte cultures were transiently transfected with a murine KC promoter-luciferase construct, and reporter activity was monitored after RANTES treatment.

## RANTES
Raf-1
  time of peak Raf-1 kinase activity: 5 to 10 min
[1]; RANTES
  time of peak modulation of receptor proteins: 24 h
[1]; RANTES treatment vs control astrocytes
  increase of ICAM-1 protein expression: about three
[1]; RANTES treatment, control 16.3
  ICAM-1 mean intensity: 50.2
[1]; RANTES treatment, control of 6.0 as printed
  CX3CR1 mean intensity: 14.3
[1]; after RANTES, control about 50%
  cells stained with anti-CX3CR1: less than 30%
Mouse thymocytes
  RANTES and TNF-α RNA levels in thymocytes: not to ber further enhanced
astrocytes
  concentration inducing KC protein: ≥ 10 ng/mL
[2]
  nuclear translocation of phosphorylated RSK: nuclear translocation was noted at 5 min
Murine KC promoter
  stimulation of KC promoter-luciferase reporter activity: about four
